Data taken from US20220313651A1, “INHIBITORS OF ZIKA VIRUS INFECTION” (priority 2019, published 2022).

Tests used:
[1] = molecular target: ZIKV full-length E protein (Zika virus, UniProt Q32ZE1); test: ELISA binding to ZIKV full-length E protein
Method: (§1) Binding of compounds (NPs) to ZIKV full-length E (FIG. 3A), EDIII (FIG. 3B), and NS2B-NS3 (FIG. 3C) proteins, was detected by ELISA. The percent binding was reported in the presence or absence of serially diluted NPs using the formula (1-[E/EDIII-NP]/[E/EDIII])×100 (for E/EDIII binding) or (1-[NS2B-NS3-NP]/[NS2B-NS3])×100 (for NSEB-NS3 binding). […] The concentrations of ZIKV EDIII and mAbs were 1.5 and 0.5 μg/ml, respectively. […] The concentrations of substrate (Bz-Nle-Lys-Lys-Arg-AMC) and ZIKV NS2B-NS3 protein were 4 μM and 1 μg/ml, respectively. The percent inhibition of protease activity was calculated in the presence or absence of serially diluted compounds using the formula (1-[NS2B-NS3-substrate-NP]/[NS2B-NS3-substrate])×100. The IC50 values were calculated based on the percent inhibition. The data are expressed as mean±s.e.m. (n=4).
(§2) The data are expressed as mean±s.e.m. (n=4), and DMSO was used as negative control. Surface plasmon resonance (SPR) analysis of the binding between ST087010 and ZIKV EDIII (FIG. 6D) or NS2B-NS3 (FIG. 6E) protein was performed. Binding affinity was shown as KD (equilibrium dissociation constant).
(§3) The binding between the Z-medicament and ZIKV full-length E protein, EDIII protein (E residues 298-409 fused with a C-terminal human Fc), or NS2B-NS3 protease was carried out by ELISA. Briefly, ELISA plates were pre-coated with the proteins described above at 4° C. overnight, and blocked with 2% fat-free milk at 37° C. for 2 h. Serial dilutions of the Z-medicament or DMSO (control) were then added to the plates and incubated at 37° C. for 2 h. The plates were washed with PBS containing Tween-20 (PBST), and incubated at 37° C. for 1 h with ZIKV EDIII-specific human mAb ZKA64-LALA (0.5 μg/ml) (for binding to ZIKV full-length E and EDIII proteins), or mouse sera specific to ZIKV NS2B-NS3 (for binding to NS2B-NS3 protease). The plates were washed with PBST, and incubated with horseradish peroxidase (HRP)-conjugated anti-human IgG-Fab (1:3000) or anti-mouse IgG (1:3000) antibody at 37° C. for 1 h. The 3,3′,5,5′-tetramethylbenzidine (TMB) substrate was added to the plates, and the reaction was stopped by 1 N H2SO4. Absorbance at 450 nm (A450 value) was measured by ELISA microplate reader.
(§4) Briefly, ELISA plates were coated with each protein (1 μg/ml) at 4° C. overnight, and were then incubated with blocking buffer containing 2% fat-free milk in PBST at 37° C. for 2 h. The above compounds, or DMSO control, at serial dilutions were added to the plates, and incubated at 37° C. for 2 h. After three washes using PBST, the plates were incubated at 37° C. for 2 h with ZIKV EDIII-specific human mAb ZKA64-LALA (0.5 μg/ml) (for binding to ZIKV full-length E or EDIII protein), or ZIKV NS2B-NS3-specific mouse sera (for binding to NS2B-NS3 protein). After further washes, the plates were incubated with HRP-conjugated anti-human IgG-Fab (1:3,000) or anti-mouse IgG (1:3,000) antibody at 37° C. for 1 h. The plates were incubated with substrate TMB, and the reaction was stopped by addition of 1 N H2SO4. Absorbance at 450 nm (A450 values) was measured by an ELISA microplate reader. EC50 values were calculated.

ZIKV NS2B-NS3 protease = molecular target: T1, ZIKV NS2B-NS3 protease (Zika virus, UniProt Q32ZE1); test: ELISA binding to ZIKV NS2B-NS3 protease
T1 construct: 49-97) and NS2 protein (residues 1-185) through a covalent; made in house; host or cells: E. coli
Method: as §1, §2, §3
as §4, with “h.” for “h. The plates were incubated with substrate TMB, and the reaction was stopped by addition of 1 N H2SO4. Absorbance at 450 nm (A450 values) was measured by an ELISA microplate reader. EC50 values were calculated.”

[2] = molecular target: T2, ZIKV EDIII protein (E residues 298-409) (Zika virus, UniProt Q32ZE1, D679E/I627V/V603I/V629A); type: binding; settings: ELISA
T2 construct: human Fc (C)
Method: as §1, §2, §3
Briefly, ELISA plates were coated with each protein (1 μg/ml) at 4° C. overnight, and were then incubated with blocking buffer containing 2% fat-free milk in PBST at 37° C. for 2 h. The above compounds, or DMSO control, at serial dilutions were added to the plates, and incubated at 37° C. for 2 h. […] Absorbance at 450 nm (A450 values) was measured by an ELISA microplate reader. EC50 values were calculated.

Vero E6 cells = test: in vitro; settings: Vero E6 cells
Method: The cytotoxicity of the Z-medicaments in Vero E6 (ZIKV target cells) was evaluated using the Cell Counting Kit-8 (CCK8).
Briefly, compounds at 2-fold serial dilutions were added to cells (2.0×10^4/well) pre-seeded in 96-well plates. The cells were cultured at 37° C. for 3 days, and incubated with CCK8 solution, followed by measurement of absorbance at 450 nm (A450 value) using microplate reader.

[3] = system: ZIKV human strain PRVABC59 (2015/Puerto Rico); test: Plaque reduction inhibition assay in Vero E6 cells, ZIKV PRVABC59; type: cell-based, Zika virus (ZIKV); settings: Vero E6 cells; Table 7, gossypol derivatives; read-out: ZIKV strains IC50, PRVABC59
Method: (§5) A plaque reduction inhibition assay was carried out to measure the inhibitory activity of Z-medicaments against infections of ZIKV and DENV. […] The compound-virus mixtures were then transferred to Vero E6 cells (10^5/well) and incubated at 37° C. for 1 h.

[4] = system: ZIKV human strain IbH 30656 (1968/Nigeria); test: Plaque reduction inhibition assay in Vero E6 cells, ZIKV IbH 30656; type: cell-based, Zika virus (ZIKV); settings: Table 7, gossypol derivatives, read-out: ZIKV strains IC50, IbH 30656
Method: as §5

[5] = system: ZIKV rhesus macaque strain MR 766 (1947/Uganda); test: Plaque reduction inhibition assay in Vero E6 cells, ZIKV MR 766; type: cell-based, Zika virus (ZIKV); settings: Vero E6 cells; Table 7, gossypol derivatives; read-out: ZIKV strains IC50, MR766
Method: as §5

[6] = system: ZIKV mosquito strain MEX 2-81 (2016/Mexico); test: Plaque reduction inhibition assay in Vero E6 cells, ZIKV MEX 2-81; type: cell-based, Zika virus (ZIKV); settings: Vero E6 cells; Table 7, gossypol derivatives; read-out: ZIKV strains IC50, MEX 2-81
Excerpt: (§6) Vero E6 and LLC-MK2 cells were maintained in Dulbecco's Modified Eagle Medium (DMEM) supplemented with 8% fetal bovine serum (FBS) and penicillin and streptomycin (P/S). C6/36 cells were maintained in Eagle's Minimal Essential Medium (EMEM) supplemented with 5% FBS and P/S. ZIKV strains, including human strains PAN2016 (2016/Panama), R116265 (2016/Mexico), PAN2015 (2015/Panama), FLR (2015/Colombia), R103451 (2015/Honduras), PRVABC59 (2015/Puerto Rico), PLCal_ZV (2013/Thailand), and IbH 30656 (1968/Nigeria), mosquito strain MEX 2-81 (2016/Mexico), and rhesus macaque strain MR 766 (1947/Uganda), were used in the studies. These ZIKV strains were cultured in Vero E6 cells, and viral titers were detected by a standard plaque-forming assay. DENV human strains, including type 1: DENV-1-V1792 (2007/Vietnam), type 2: DENV-2-V594 (2006/Puerto Rico), type 3: DENV-3-V1043 (2006/Puerto Rico), and type 4: DENV-4-PR 06-65-740 (2006/Puerto Rico), were cultured in C6/36 cells, and the viral titers were determined by plaque-forming assay as described above.
as §5, with “h. […] The cells were washed thoroughly with PBS, and overlaid with DMEM containing 1% carboxymethyl cellulose and 2% FBS, followed by in vitro culture at 37° C. for 4-5 days and then staining with 0.5% crystal violet.” for “h.”
(§7) After removal of the unbound compounds by centrifugation after addition of 3% PEG-6000, ZIKV was incubated with Vero E6 cells at 37° C. for 1 h. The cells were then washed with PBS, overlaid with DMEM containing 1% carboxymethyl cellulose and 2% FBS, and cultured at 37° C. for 4-5 days, followed by staining with 0.5% crystal violet.

[7] = system: ZIKV human strain PAN2016 (2016/Panama); test: Plaque reduction inhibition assay in Vero E6 cells, ZIKV PAN2016; type: cell-based, Zika virus (ZIKV); settings: Vero E6 cells; Table 7, gossypol derivatives; read-out: ZIKV strains IC50, PAN2016
Method: as §5

[8] = system: ZIKV human strain R116265 (2016/Mexico); test: Plaque reduction inhibition assay in Vero E6 cells, ZIKV R116265; type: cell-based, Zika virus (ZIKV); settings: Table 7, gossypol derivatives, read-out: ZIKV strains IC50, R116265
Excerpt: as §6
as §5, with “h. […] The cells were washed thoroughly with PBS, and overlaid with DMEM containing 1% carboxymethyl cellulose and 2% FBS, followed by in vitro culture at 37° C. for 4-5 days and then staining with 0.5% crystal violet.” for “h.”
as §7

[9] = system: ZIKV human strain R103451 (2015/Honduras); test: Plaque reduction inhibition assay in Vero E6 cells, ZIKV R103451; type: cell-based, Zika virus (ZIKV); settings: Vero E6 cells; Table 7, gossypol derivatives; read-out: ZIKV strains IC50, R103451
Method: as §5

[10] = system: ZIKV human strain PLCal_ZV (2013/Thailand); test: Plaque reduction inhibition assay in Vero E6 cells, ZIKV PLCal_ZV; type: cell-based, Zika virus (ZIKV); settings: Vero E6 cells; Table 7, gossypol derivatives; read-out: ZIKV strains IC50, PLCal_ZV
Method: as §5

[11] = system: ZIKV human strain FLR (2015/Colombia); test: Plaque reduction inhibition assay in Vero E6 cells, ZIKV FLR; type: cell-based, Zika virus (ZIKV); settings: Vero E6 cells; Table 7, gossypol derivatives; read-out: ZIKV strains IC50, FLR
Method: as §5

[12] = system: ZIKV human strain PAN2015 (2015/Panama); test: microbe, parasite or virus in culture; type: cell-based, Zika virus (ZIKV); settings: Vero E6 cells; Table 7, gossypol derivatives; read-out: ZIKV strains IC50, PAN2015
Excerpt: as §6
as §5, with “h. […] The cells were washed thoroughly with PBS, and overlaid with DMEM containing 1% carboxymethyl cellulose and 2% FBS, followed by in vitro culture at 37° C. for 4-5 days and then staining with 0.5% crystal violet.” for “h.”
as §7

Row | SMILES | Binding to ZIKV full-length E protein (in words) [1] | Binding to ZIKV NS2B-NS3 protein (in words) (ZIKV NS2B-NS3 protease) | Binding to ZIKV EDIII protein (in words) [2] | CC50 (Vero E6 cells; 3 days, CCK8, Table 1) [µM] | IC50 [3] [µM] | IC50 [4] [µM] | CC50 (Vero E6 cells; Table 7, gossypol derivatives) [µM] | IC50 [5] [µM] | IC50 [6] [µM] | IC50 [7] [µM] | IC50 [8] [µM] | IC50 [9] [µM] | IC50 [10] [µM] | IC50 [11] [µM] | IC50 [12] [µM]
1 | CC(C)C[C@H](NC(=O)[C@H](Cc1ccccc1)NC(=O)c1cnccn1)B(O)O [Bortezomib, bortezomib, reference compound] | bound to no ZIKV proteins tested | bound to no ZIKV proteins tested | bound to no ZIKV proteins tested | 17 ± 0.2 |  |  |  |  |  |  |  |  |  |  | 
2 | CCC(O)/N=C/c1c(O)c(O)c(C(C)C)c2cc(C)c(-c3c(C)cc4c(C(C)C)c(O)c(O)c(/C=N/C(O)CC)c4c3O)c(O)c12 (stereo not shown) [ST005138] |  |  |  |  | 3.89 ± 0.32 | 2.4 ± 0.27 | 22.82 ± 0.02 | 2.52 ± 0.04 | 2.89 ± 0.12 | 2.29 ± 0.01 | 3.13 ± 0.29 | 3.05 ± 0.09 | 3.87 ± 0.54 | 3.44 ± 0.18 | 2.18 ± 1.19
3 | Cc1cc2nc[nH]c2c(N=Cc2c(O)c(O)c(C(C)C)c3cc(C)c(-c4c(C)cc5c(C(C)C)c(O)c(O)c(C=Nc6c(C)c(C)cc7nc[nH]c67)c5c4O)c(O)c23)c1C [ST092971] |  |  |  |  | 9.1 ± 0.11 | 5.16 ± 0.21 | 72.1 ± 1.91 | 5.2 ± 0.37 | 13.5 ± 0.58 | 4.98 ± 0.01 | 7.97 ± 0.17 | 6.64 ± 0.27 | 6.72 ± 0.2 | 6.89 ± 0.05 | 5.01 ± 0.36
4 | Cc1cc2c(C(C)C)c(O)c(O)c3c2c(c1-c1c(C)cc2c(C(C)C)c(O)c(O)c4c2c1OC4N)OC3N (stereo not shown) [ST069299] |  |  |  |  | 3.33 ± 0.3 | 2.54 ± 0.44 | 25.9 ± 2.7 | 4.88 ± 0.05 | 3.89 ± 0.24 | 2.34 ± 0.06 | 2.57 ± 0.2 | 3.85 ± 0.11 | 3.98 ± 0.54 | 3.27 ± 0.25 | 2.33 ± 0.1
